We go through three molecules from patent publication US20160200743A1, “BORON-CONTAINING SMALL MOLECULES AS ANTI-INFLAMMATORY AGENTS” (ANACOR PHARMACEUTICALS, INC., priority 2013, published 2016).

The assay deals with Human PDE4 (PDE4B2 truncated) (Homo sapiens, UniProt Q07343). As to the kind of experiment: Measurement of Phosphodiesterase 4 (PDE4) inhibition, zinc and barium precipitation method with 3H-cAMP. The format is biochemical. The following applies: PDE4B2 truncated catalytic domain, 0.3 pM enzyme, 20 min pre-incubation, 30° C. for 6 minutes. Here is the method: Human PDE4 enzymatic activity was assayed using the zinc and barium precipitation method of Saldou, N. et at (1998: Cell Signal, vol 10, No. 6, pp 427-440). The assay was performed in 96-well v-bottom plates (BrandPlates, Wertheim, Germany). PDE4B2 truncated is the catalytic domain including the UCR2 and a portion of the UCR1 domain of PDE4B2 (23.4 mg/mL) from Proteros Biostructures. Final concentration of enzyme in the assay was 0.3 pM. Stocks of the tested compounds were prepared in 100% DMSO at a concentration of 40 mM. The 105-μL reaction volume consisted of 45 mM Tris-HCl, pH 7.5, 12.5 mM MgSO4, 1.5 μM […] (Sigma, St Louis, Mo.) supplemented with 0.15 μM ^3H-cAMP (Perkin Elmer, Waltham, Mass.). Compounds were pre-incubated with enzyme at room temperature for 20 min prior to initiating the reaction by adding substrate (cAMP supplemented with ^3H-cAMP). After incubation at 30° C. for 6 minutes, the reaction was stopped by the addition of 50 μL fresh made 21.5 mM ZnSO4.7H2O (Alfa Aesar, Ward Hill, Mass.) containing 5 mM AMP as a co-precipitant. Total AMP was precipitated by the addition of 50 μL 17.5 mM Ba(OH)2, prepared fresh daily in autoclaved MilliQ water. 180 uL of well-mixed precipitate was transferred and collected by filtration (Millipore Multiscreen; MSFBN6B50). The plates were washed five times with cold wash solution (1 mM NaOH, 100 mM NaCl) and dried for 30 min to 1 hour at 65±10° C. or overnight at room temperature. The bottoms of plates were sealed with clear tapes (Millipore Co-operation, Billerica, Mass.) and 50±10 μL of scintillation cocktail (Perkin Elmer Waltham, Mass.) was added. The plates were top sealed and radioactivity was measured with scintillation counter.
Human PDE4 (PDE4B2 truncated), sequence (Q07343 212-659 limits assumed): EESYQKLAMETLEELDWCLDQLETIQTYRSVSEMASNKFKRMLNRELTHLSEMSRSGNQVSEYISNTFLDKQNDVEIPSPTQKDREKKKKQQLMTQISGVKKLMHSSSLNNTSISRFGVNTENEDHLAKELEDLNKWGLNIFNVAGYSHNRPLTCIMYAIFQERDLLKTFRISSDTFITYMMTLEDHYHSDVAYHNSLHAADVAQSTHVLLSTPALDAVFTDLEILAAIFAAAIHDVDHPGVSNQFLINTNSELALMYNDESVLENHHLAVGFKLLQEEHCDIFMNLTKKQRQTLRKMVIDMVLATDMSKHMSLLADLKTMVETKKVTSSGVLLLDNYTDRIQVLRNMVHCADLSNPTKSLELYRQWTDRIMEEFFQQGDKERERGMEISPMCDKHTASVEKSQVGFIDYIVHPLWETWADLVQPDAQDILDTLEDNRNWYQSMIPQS

For the molecule `N#Cc1ccc(C(=O)c2ccc3c(c2)COB3O)cc1` [A, 4-(1-hydroxy-1,3-dihydrobenzo[c][1,2]oxaborole-5-carbonyl)benzonitrile], inhibition was half-maximal at 427 nM (IC50). Turning to `N#Cc1ccc(C(O)c2ccc3c(c2)COB3O)cc1` (stereo not drawn) [B, 4-(hydroxy(1-hydroxy-1,3-dihydrobenzo[c][1,2]oxaborol-5-yl)methyl)benzonitrile], the concentration for half-maximal inhibition (IC50) (commonly the point on the concentration scale where inhibition reaches its midpoint) came to 3090 nM.

On to `N#Cc1ccc([S+]([O-])c2ccc3c(c2)COB3O)cc1` (stereo not drawn) [D, 4-(1-hydroxy-1,3-dihydrobenzo[c][1,2]oxaborol-5-ylsulfinyl)benzonitrile], for which inhibition was half-maximal at 47 nM (IC50).
